For 30 molecules, inhibition results are on record in patent US6699877B2 (Gruenenthal GmbH, priority 2000, dated 2004).

The assay deals with T1, glycine binding site of the NMDA receptor channel (Rattus norvegicus, UniProt P35439).
T1 construct: from tissue; host or cells: rat brain cortex and hippocampus membrane homogenate
Nature of the assay: Receptor binding, displacement of (3H)-MDL 105.519 on rat cerebral membrane homogenates. Conditions: 10 μmol/l test substance; 1 nmol/l (3H)-MDL 105.519; read-out: Displacement (%, 10 μmol/l) of radioactive ligand from specific binding. On the procedure: Receptor Binding (Glycine Binding Site of the NMDA Receptor Channel)
Experiments to determine the affinity of the compounds according to the invention of Formula I to the glycine binding site of the NMDA receptor channel were carried out on cerebral membrane homogenates (homogenate of Cortex- and Hippocampus-Areal from the brain of male rats, Wistar strain) (B. M. Baron, B. W. Siegel, B. L. Harrison, R. S. Gross, C. and P. Towers, Journal of Pharmacology and Experimental Therapeutics, Vol. 279, p. 62, 1996).
For this purpose, Cortex and Hippocampus from freshly removed rats' brains were dissected, homogenized in 5 mmol/l TRIS-acetate buffer, 0.32 mol/l sacharose pH 7.4 (10 ml/g fresh weight) with a Potter homogenizer (made by Braun/Melsungen, 10 piston strokes at 500 rpm) while cooling with ice and subsequently centrifuged for 10 minutes at 1,000 g and 4° C. The first supernatant material was collected and the sediment homogenized again with […] TRIS-acetate buffer, 0.32 mol/l safcharose pH 7.4 (5 ml/g original fresh weight) using the Potter homogenizer (10 piston strokes at 500 rpm) while cooling with ice and centrifuged for 10 minutes at 1,000 g and 4° C. The resultant supernatant material was combined with the supernatant material from the first centrifugation and centrifuged at 17,000 g for 20 minutes at 4° C. The supernatant material after this centrifugation was discarded, the membrane sediment taken up with 5 mmol/l TRIS-acetate buffer pH 8.0 (20 ml/g original fresh weight) and homogenized with 10 piston strokes at 500 rpm.
The membrane homogenate was then incubated for 1 hour at 4° C. and centrifuged for 30 minutes at 50,000 g and 4° C. The supernatant material was discarded and the centrifuge tube with the membrane sediment sealed with parafilm and frozen for 24 hours at −20° C. The membrane sediment was thawed on the following day, taken up with ice-cold 5 mmol/l TRIS-acetate buffer, 0.1% saponin (w/v) pH 7.0 (10 ml/g original fresh weight), homogenized with 10 piston strokes at 500 rpm and subsequently centrifuged for 20 minutes at 50,00 g and 4° C. The resultant supernatant material was discarded, the sediment taken up in a small volume with 5 mmol/l TRIS-acetate buffer pH 7.0 (about 2 ml/g original fresh weight) and homogenized again with 10 piston strokes at 500 rpm. After determining the protein content, the membrane homogenate was adjusted to a protein concentration of 10 mg protein/ml using 5 mmol/l TRIS-acetate buffer pH 7.0 and frozen in aliquots for testing.
For the receptor binding test, aliquots were thawed, diluted 1:10 with 5 mmol/l TRIS-acetate buffer pH 7.0, homogenized with 10 piston strokes at 500 rpm using the potter homogenizer (10 piston strokes at 500 rpm) while cooling with ice and centrifuged for 60 minutes at 55,000 g at 4° C. The supernatant material was decanted, the membrane sediment adjusted to a protein concentration of 1 mg/ml with ice-cold 50 mmol/l TRIS-acetate buffer pH 7.0, homogenized again with 10 piston strokes at 500 rpm and kept in suspension in the ice bath while stirring on a magnetic stirrer. 100 μl of this membrane homogenate per 1 ml of feedstock was used in each case in the receptor binding test (0.1 mg protein/ml in the final batch).
In the binding test, 50 mmol/l TRIS-acetate buffer pH 7.0 was used as buffer and 1 nmol/l (^3H)-MDL 105.519 (B. M. Baron et al 1996) was used as radioactive ligand. The proportion of unspecific binding was determined in the presence of 1 mmol/l glycine.
In further batches, the compounds according to the invention were added in concentration series and the displacement of the radioactive ligand from its specific binding to the glycine binding site of the NMDA receptor channel determined. The respective triple batches were incubated for 120 minutes at 4° C. and then harvested to determine the radioactive ligands bound to the membrane homogenate by filtration through glass fiber filter mats (GF/B). […]
For the molecule `CCOC(=O)C1CC(c2ccccc2)c2c(Cl)cc(Cl)cc2N1` (stereo not drawn) [Example 14, 5,7-dichloro-4-phenyl-1,2,3,4-tetrahydroquinoline-2-carboxylic Acid Ethyl Ester], the inhibition at 10 µM came out at 38%.
Take `O=C(O)C1CC(c2ccccc2)c2c(Cl)cc(Cl)cc2N1` (stereo not drawn) [Example 15, 5,7-dichloro-4-phenyl-1,2,3,4-tetrahydroquinoline-2-carboxylic Acid]: the inhibition at 10 µM was 75%.
For `CCOC(=O)C1CC(c2ccccc2C)c2c(Cl)cc(Cl)cc2N1` (stereo not drawn) [Example 16, 5,7-dichloro-4-o-tolyl-1,2,3,4-tetrahydroquinoline-2-carboxylic Acid Ethyl Ester] the value was 35%; for `CCOC(=O)C1CC(c2cccc(C)c2)c2c(Cl)cc(Cl)cc2N1` (stereo not drawn) [Example 17, 5,7-dichloro-4-m-tolyl-1,2,3,4-tetrahydroquinoline-2-carboxylic Acid Ester], 21%; for `Cc1cccc(C2CC(C(=O)O)Nc3cc(Cl)cc(Cl)c32)c1` (stereo not drawn) [Example 18, 5,7-dichloro-4-m-tolyl-1,2,3,4-tetrahydroquinoline-2-carboxylic Acid], 51%.
In the case of `CCOC(=O)C1CC(c2ccc(C)cc2)c2c(Cl)cc(Cl)cc2N1` (stereo not drawn) [Example 19, 5,7-dichloro-4-p-tolyl-1,2,3,4-tetrahydroquinoline-2-carboxylic Acid Ethyl Ester], the inhibition at 10 µM was 26%.
For `Cc1ccc(C2CC(C(=O)O)Nc3cc(Cl)cc(Cl)c32)cc1` (stereo not drawn) [Example 20, 5,7-dichloro-4-p-tolyl-1,2,3,4-tetrahydroquinoline-2-Carboxylic Acid] the value was 61%.
With `CCOC(=O)C1CC(c2ccc(C)cc2C)c2c(Cl)cc(Cl)cc2N1` (stereo not drawn) [Example 21, 5,7-dichloro-4-(2,4-dimethylphenyl)-1,2,3,4-tetrahydroquinoline-2-carboxylic Acid Ethyl Ester], the inhibition at 10 µM came to 26%.
The figure for `Cc1ccc(C2CC(C(=O)O)Nc3cc(Cl)cc(Cl)c32)c(C)c1` (stereo not drawn) [Example 22, 5,7-dichloro-4-(2,4-dimethylphenyl)-1,2,3,4-tetrahydroquinoline-2-carboxylic Acid] is 68%; for `O=C(O)C1CC(c2ccccc2F)c2c(Cl)cc(Cl)cc2N1` (stereo not drawn) [Example 27, 5,7-dichloro-4-(2-fluorophenyl)-1,2,3,4-tetrahydroquinoline-2-carboxylic Acid] it is 75%; for `CCOC(=O)C1CC(c2cccc(F)c2)c2c(Cl)cc(Cl)cc2N1` (stereo not drawn) [Example 28, 5,7-dichloro-4-(3-fluorophenyl)-1,2,3,4-tetrahydroquinoline-2-carboxylic Acid Ethyl Ester] it is 35%.
Regarding `O=C(O)C1CC(c2cccc(F)c2)c2c(Cl)cc(Cl)cc2N1` (stereo not drawn) [Example 29, 5,7-dichloro-4-(3-fluorophenyl)-1,2,3,4-tetrahydroquinoline-2-carboxylic Acid], the inhibition at 10 µM was 78%.
The figure for `CCOC(=O)C1CC(c2ccc(F)cc2)c2c(Cl)cc(Cl)cc2N1` (stereo not drawn) [Example 30, 5,7-dichloro-4-(4-fluorophenyl)-1,2,3,4-tetrahydroquinoline-2-carboxylic Acid Ethyl Ester] is 32%; for `O=C(O)C1CC(c2ccc(F)cc2)c2c(Cl)cc(Cl)cc2N1` (stereo not drawn) [Example 31, 5,7-dichloro-4-(4-fluorophenyl)-1,2,3,4-tetrahydroquinoline-2-carboxylic Acid] it is 58%; for `O=C(O)C1CC(c2ccccc2Cl)c2c(Cl)cc(Cl)cc2N1` (stereo not drawn) [Example 32, 5,7-dichloro-4-(2-chlorophenyl)-1,2,3,4-tetrahydroquinoline-2-carboxylic Acid] it is 92%.
Consider `CCOC(=O)C1CC(c2ccccc2Br)c2c(Cl)cc(Cl)cc2N1` (stereo not drawn) [Example 36, 4-(2-bromophenyl)-5,7-dichloro-1,2,3,4-tetrahydroquinoline-2-carboxylic Acid Ethyl Ester], for which the inhibition at 10 µM came to 46%.
For `O=C(O)C1CC(c2cccc(Br)c2)c2c(Cl)cc(Cl)cc2N1` (stereo not drawn) [Example 38, 4-(3-bromophenyl)-5,7-dichloro-1,2,3,4-tetrahydroquinoline-2-carboxylic Acid] the value was 72%.
The figure for `O=C(O)C1CC(c2ccc(Br)cc2)c2c(Cl)cc(Cl)cc2N1` (stereo not drawn) [Example 40, 4-(4-bromophenyl)-5,7-dichloro-1 ,2,3,4-tetrahydroquinoline-2-carboxylic Acid] is 70%.
On to `CCOC(=O)C1CC(c2cccc(C(F)(F)F)c2)c2c(Cl)cc(Cl)cc2N1` (stereo not drawn) [Example 41, 5,7-dichloro-4-(3-trifluoromethylphenyl)-1,2,3,4-tetrahydroquinoline-2-carboxylic Acid Ethyl Ester], for which the inhibition at 10 µM was found to be 38%.
The figure for `CCOC(=O)C1Nc2cc(Cl)cc(Cl)c2C(c2ccccc2)C1C` (stereo not drawn) [Example 42, 5,7-dichloro-3-methyl-4-phenyl-1,2,3,4-tetrahydroquinoline-2-carboxylic Acid Ethyl Ester] is 21%.
Turning to `CCOC(=O)C1CC(c2ccc(F)cc2)c2cc(Cl)ccc2N1` (stereo not drawn) [Example 51, 6-chloro-4-(4-fluorophenyl)-1,2,3,4-tetrahydroquinoline-2-carboxylic Acid Ethyl Ester], the inhibition at 10 µM was 21%.
Consider `CCOC(=O)C1CC(c2ccccc2Cl)c2cc(Cl)ccc2N1` (stereo not drawn) [Example 52, 6-chloro-4-(2-chlorophenyl)-1,2,3,4-tetrahydroquinoline-2-carboxylic Acid Ethyl Ester], for which the inhibition at 10 µM came out at 22%.
For `CCOC(=O)C1CC(c2ccccc2Br)c2cc(Cl)ccc2N1` (stereo not drawn) [Example 54, 6-chloro-4-(2-bromophenyl)-1,2,3,4-tetrahydroquinoline-2-carboxylic Acid Ethyl Ester] the value was 22%.
With `CCOC(=O)C1Nc2cc(Cl)cc(Cl)c2C2CCCC12` (stereo not drawn) [Example 59, 7,9-dichloro-2,3,3a,4,5,9b-hexahydro-1H-cyclopenta[c]quinoline-4-carboxylic Acid Ethyl Ester], the inhibition at 10 µM was 14%.
Regarding `CCOC(=O)C1Nc2cc(Cl)cc(Cl)c2C2C3CCC(C3)C12` (stereo not drawn) [Example 60, 1,3-dichloro-7,10-methano-5,6,6a,7,8,9,10,10a-octahydrophenanthridine-6-carboxylic Acid Ethyl Ester], the inhibition at 10 µM was 23%.
Consider `CCOC(=O)C1Nc2cc(Cl)cc(Cl)c2C2c3ccccc3CC12` (stereo not drawn) [Example 61], for which the inhibition at 10 µM came out at 15%.
Take `O=C(O)C1CC(c2ccc3ccccc3c2)c2cc(F)cc(Cl)c2N1` (stereo not drawn) [Example 81, 8-chloro-6-fluoro-4-naphthalene-2-yl-1,2,3,4-tetrahydroquinoline-2-carboxylic acid]: the inhibition at 10 µM is 66%.
Turning to `COc1ccc(C2c3cc(Oc4ccccc4)ccc3NC(C(=O)O)C2C)cc1` (stereo not drawn) [Example 82, 4-(4-methoxyphenyl)-3-methyl-6-phenoxy-1,2,3,4-tetrahydroquinoline-2-carboxylic acid], the inhibition at 10 µM was 96%.
The figure for `Cc1cccc(C2CC(C(=O)O)Nc3c(F)cc(Cl)cc32)c1` (stereo not drawn) [Example 83, 6-chloro-8-fluoro-4-m-tolyl-1,2,3,4-tetrahydroquinoline-2-carboxylic acid] is 93%; for `Cc1cccc(C2CC(C(=O)O)Nc3c(Cl)cc(F)cc32)c1` (stereo not drawn) [Example 84, 8-chloro-6-fluoro-4-m-tolyl-1,2,3,4-tetrahydroquinoline-2-carboxylic acid] it is 79%.
